Assay results taken from PMC11884936, “MDC1 mediates Pellino recruitment to sites of DNA double-strand breaks” (Life Science Alliance, 2025).

What was measured:
Format in all cases: binding, human
[1] = system: GST-PELI2-FHA; assay: Biotinylated peptide pull-down of purified recombinant GST-PELI2-FHA; details: biotinylated peptide on streptavidin beads, 5 h at 4°C, SDS–PAGE, protein stain
Description: For recombinant human PELI2-FHA expression in bacteria and further purification, the GST-tagged PELI2-FHA construct was transformed into E. coli BL21(DE3)pLysS Competent Cells (Promega). 100 μl of the transformation mixture were used to inoculate a 500 ml flask containing 100 ml of Luria–Bertani broth (LB) supplemented with carbenicillin (100 μg/ml) and chloramphenicol (34 μg/ml), and inoculated culture was incubated overnight at 27°C without shaking. On the next day, the overnight culture was grown at 37°C in an orbital shaking incubator until the optical density at 600 nm reached 0.6–0.8, moment when culture was removed from the incubator and rapidly cooled on ice to 25°C. Recombinant protein expression was induced by the addition of 0.4 mM isopropyl β-D-1-thiogalactopyranoside (IPTG) and incubation of the culture for a further 4 h at 25°C shaking at 220 rpm was performed. Cells were then harvested by centrifugation, and the resulting pellet was stored at −80°C until required. […] Protein concentration was measured after every purification step. […]

[2] = system: PELI1/2; assay: Biotinylated peptide pull-down from HeLa nuclear extracts, Western blot for PELI1/2; details: biotinylated peptide on streptavidin beads, 4 h at 4°C, SDS–PAGE and Western blot
Description: (§1) Streptavidin-coupled Dynabeads MyOne Streptavidin T1 (Invitrogen) were washed four times with PBS pH 7.4. To conjugate the Dynabeads with biotinylated peptides (21st Century Biochemicals, Inc.), 30 μl of beads were incubated with 0.2 μmol of each peptide with end-over-end rotation for 90 min at RT. Conjugated Dynabeads were then washed once with PBS and 3 × 2 min with 0.1% BSA in PBS. HeLa nuclear extracts (Ipracell) were diluted 1:1 in 2X Dilution buffer (100 mM NaCl, 10 mM NaF, 0.2 mM EDTA, 0.4% Igepal CA-630, 20 mM HEPES-KOH pH 7.4) supplemented with complete protease inhibitor cocktail (Roche), and cleared by centrifugation at 16,000g for 15 min at 4°C. Purified GST-PELI2-FHA recombinant protein was also diluted in 2X Dilution buffer containing protease inhibitors. MDC1-[p]TQXF peptide-conjugated Dynabeads were incubated either with clarified HeLa nuclear extracts for 4 h or with purified GST-PELI2-FHA for 5 h. H2AX-[p]S139 peptide-conjugated Dynabeads were incubated with clarified HeLa nuclear extracts for 4 h. In all the cases, incubation was performed with end-over-end rotation at 4°C. Beads were washed three times with Peptide pull-down buffer (50 mM NaCl, 50 mM KCl, 5 mM NaF, 0.1 mM EDTA, 0.2% Igepal CA-630, 10% glycerol, 20 mM HEPES-KOH pH 7.4) supplemented with complete protease inhibitor cocktail (Roche). Then, they were either resuspended in Peptide pull-down buffer and brought to the Functional Genomics Center of the University of Zurich (FGCZ) for further mass spectrometry, or elution was carried out in 2X SDS sample buffer (100 mM DTT, PLD001; Geneaid) for SDS–PAGE. […]
(§2) Adjusted volume (intensity) of Western blot bands was calculated with Image Lab (Bio-Rad, Image Lab Software Version 6.1, Bio-Rad Laboratories, Inc.) for every biotinylated p-peptide from the MDC1-[p]TQXF peptide pull-down from HeLa nuclear extracts, as a way of analyzing the binding affinity of either RNF8 or PELI1/2 for each pTQXF cluster. […]

[3] = system: RNF8; assay: Biotinylated peptide pull-down from HeLa nuclear extracts, Western blot for RNF8; details: biotinylated peptide on streptavidin beads, 4 h at 4°C, SDS–PAGE and Western blot
Description: as §1, with “h.” for “h. In all the cases, incubation was performed with end-over-end rotation at 4°C. Beads were washed three times with Peptide pull-down buffer (50 mM NaCl, 50 mM KCl, 5 mM NaF, 0.1 mM EDTA, 0.2% Igepal CA-630, 10% glycerol, 20 mM HEPES-KOH pH 7.4) supplemented with complete protease inhibitor cocktail (Roche). Then, they were either resuspended in Peptide pull-down buffer and brought to the Functional Genomics Center of the University of Zurich (FGCZ) for further mass spectrometry, or elution was carried out in 2X SDS sample buffer (100 mM DTT, PLD001; Geneaid) for SDS–PAGE.”
as §2

[4] = system: MDC1; assay: Biotinylated H2AX-pS139 peptide pull-down from HeLa nuclear extracts, Western blot for MDC1; details: biotinylated peptide on streptavidin beads, 4 h at 4°C
Description: as §1, with “(Roche).” for “(Roche). Then, they were either resuspended in Peptide pull-down buffer and brought to the Functional Genomics Center of the University of Zurich (FGCZ) for further mass spectrometry, or elution was carried out in 2X SDS sample buffer (100 mM DTT, PLD001; Geneaid) for SDS–PAGE.”

| Substance | purified GST-PELI2-FHA pulled down by the peptide (in words) [1] | PELI1/2 pulled down by the peptide (in words) [2] | RNF8 pulled down by the peptide (in words) [3] | MDC1 pulled down by the peptide (in words) [4] |
| --- | --- | --- | --- | --- |
| Biotin-SGS-AVQSMEDEP[p]TQAFML-NH2 [biotinylated pT719, synthetic biotinylated MDC1 TQXF phosphopeptide for pull-downs] | specifically pulled down | specifically pulled down | – | – |
| Biotin-SGS-CLRESEDSE[p]TQPFDT-NH2 [biotinylated pT765, synthetic biotinylated MDC1 TQXF phosphopeptide for pull-downs] | – | more PELI1/2 than RNF8 | – | – |
| Biotin-SGS-DSEDLDLQA[p]TQCFLE-NH2 [biotinylated pT699, synthetic biotinylated MDC1 TQXF phosphopeptide for pull-downs] | – | highest quantities | highest quantities | – |
| Biotin-SGS-LDEPWEVLA[p]TQPFCL-NH2 [biotinylated pT752, synthetic biotinylated peptide, human MDC1 residues 743–757, phospho-threonine at T752] | specifically pulled down | – | large quantities | – |
| Biotin-SGS-TVGPKAPSGGKKATQA[p]SQEY-OH [biotinylated H2AX-pS139, biotinylated γH2AX phosphopeptide for pull-downs] | – | – | – | efficiently pulled down |
